Results from US5834430A, “Potentiation of antibiotics” (BiosYnth S.r.l., priority 1995, dated 1998).
Where two headings read alike, the source gives them in different places.

How the values were obtained:
Assay in all cases: Checkerboard microdilution MIC of antibiotic with peptide
E. cloa 12645 = format: cell-based; settings: Enterobacter cloacae, no peptide (None, 0)
Method: (§1) The general assay medium was L broth (pH7.2) which contained 10 g of tryptone (Difco Laboratories, Detroit, Mich.), 5 g of yeast extract (Oxoid Ltd., Hampshire, UK) and 5 g of sodium chloride per liter. After an incubation time of 18 hours at 37° C., the growth of each microtiter well is measured with a Titerteck Multiscan spectrophotometer at 405 nm. Before reading, the spectrophotometer was blanked with corresponding uninoculated drug-containing media. The minimum inhibitory concentration (MIC) of an antibiotic was defined as the lowest concentration of the antibiotic expressed in mg/l which reduced the growth of the target bacteria by ≥90% (MIC90).

E. coli IH3080 = format: cell-based; settings: Escherichia coli, no peptide (None, 0)
Method: as §1

Kl. pneumoniae 12854 = format: cell-based
Method: as §1

Ps. aeroginosa PAO1 = format: cell-based; settings: Pseudomonas aeruginosa, no peptide (None, 0)
Method: as §1

S. typhi SH5014 = format: cell-based, Salmonella typhimurium
Method: as §1

[1] = Experiment III, read-out: MIC Novobiocin
[2] = Experiment I, read-out: MIC Rifampin
[3] = Experiment II, read-out: MIC Fusidic a.
[4] = Experiment IV, read-out: MIC Erythrom.

CO[C@@H]1[C@@H](OC(N)=O)[C@@H](O)[C@H](Oc2ccc3c(O)c(NC(=O)c4ccc(O)c(CC=C(C)C)c4)c(=O)oc3c2C)OC1(C)C [Novobiocin, novobiocin]
MIC (E. cloa 12645; [1]): > 30 µg/mL
MIC (E. coli IH3080; [1]): 30 µg/mL
MIC (Kl. pneumoniae 12854; Klebsiella pneumoniae, 12854, read-out: MIC Novobiocin): 30 µg/mL
MIC (Ps. aeroginosa PAO1; [1]): > 30 µg/mL
MIC (S. typhi SH5014; read-out: MIC Novobiocin): 30 µg/mL

CO[C@H]1/C=C/O[C@@]2(C)Oc3c(C)c(O)c4c(O)c(c(/C=N/N5CCN(C)CC5)c(O)c4c3C2=O)NC(=O)/C(C)=C\C=C\[C@H](C)[C@H](O)[C@@H](C)[C@@H](O)[C@@H](C)[C@H](OC(C)=O)[C@@H]1C [Rifampin, rifampin]
MIC (E. cloa 12645; [2]): 10 µg/mL
MIC (E. coli IH3080; [2]): 10 µg/mL
MIC (Kl. pneumoniae 12854; Klebsiella pneumoniae, 12854, read-out: MIC Rifampin): 10 µg/mL
MIC (Ps. aeroginosa PAO1; [2]): > 10 µg/mL
MIC (S. typhi SH5014; read-out: MIC Rifampin): 10 µg/mL

CC(=O)O[C@H]1C[C@@]2(C)[C@@H](C[C@@H](O)[C@H]3[C@@]4(C)CC[C@@H](O)[C@@H](C)[C@@H]4CC[C@@]32C)/C1=C(\CCC=C(C)C)C(=O)O [Fusidic a., fusidic acid]
MIC (E. cloa 12645; [3]): > 300 µg/mL
MIC (E. coli IH3080; [3]): 300 µg/mL
MIC (Kl. pneumoniae 12854; Klebsiella pneumoniae, 12854, read-out: MIC Fusidic a.): > 300 µg/mL
MIC (Ps. aeroginosa PAO1; [3]): > 300 µg/mL
MIC (S. typhi SH5014; read-out: MIC Fusidic a.): > 300 µg/mL

CC[C@H]1OC(=O)[C@H](C)[C@@H](O[C@H]2C[C@@](C)(OC)[C@@H](O)[C@H](C)O2)[C@H](C)[C@@H](O[C@@H]2O[C@H](C)C[C@H](N(C)C)[C@H]2O)[C@](C)(O)C[C@@H](C)C(=O)[C@H](C)[C@@H](O)[C@]1(C)O [Erythrom., erythromycin]
MIC (E. cloa 12645; [4]): > 100 µg/mL
MIC (E. coli IH3080; [4]): 30 µg/mL
MIC (Kl. pneumoniae 12854; Klebsiella pneumoniae, 12854, read-out: MIC Erythrom.): > 100 µg/mL
MIC (Ps. aeroginosa PAO1; [4]): 100 µg/mL
MIC (S. typhi SH5014; read-out: MIC Erythromycin.): 100 µg/mL
